system: G401 cells; assay: G401 ELISA test; format: cell-based; details: Homo sapiens, G-401; G401 cells treated with compounds for 72 hours; ELISA detecting K27 and H3; read-out: G401_ELISA IC50
Description: • Plate Reader: Envision (Perkinelmner); plate shaker: IKA MTS 2/4; plate Washer: BioTek microplate wisher 405 select; Cell counter: Counterstar (Ruiyu-biotech); Cell culture incubator: MCO-15AC (ThermoFisher); Pipette: BioHit Multichannel. Pipette: 0.2-10 μL, 10-300 μL, 50-1200 μL; Centrifuge: Thermo Centrifuge ST 40R; Pure water system: Millipore Milli-Q Reference system; Refrigerator: Haier −80 degree, −20 degree, and 4-degree refrigerators; cell cryopreservation box: Mr. Frosty™ Gradient Cooling Box Cat #5100-0001
• McCoys 5A (Modified) culture medium (ATCC); FBS (Gibco); 0.25% Trypsin/EDTA (Gibco); PBS (Hyclone); Penicillin/Streptomycin(100×) (Gibco); DMSO (Sigma); 384 cell culture plate (Corning); 384 detection plate (Greiner); 96 well plate (compound dilution) (Haimen, Qunchao); T75 Cell Culture Bottle (Corning)
G401 cells were seeded in a 384-well cell culture plate and incubated overnight at 37° C. in a 5% CO2 cell culture incubator, after which the cells were treated with compounds of different concentrations for 72 hours. The 384-well cell culture plate was taken out and upside down in a centrifuge to centrifugeat 300 rpm for 1 minute. After centrifugation, the 384-well cell culture plate was washed twice with PBS, added with lysis solution and lysed for 60 minutes. Then neutralization buffer was added for mixing and incubation was continued for 30 minutes. 20 ul (for detecting K27) and 10 ul (for detecting H3) of cell lysate were extracted from the 384-well cell culture plate and transferred to a 384 ELISA detection plate and incubate overnight at 4° C. The next day, the 384 ELISA plate was taken out and washed 5 times with TBST in a microplate washer. Then, the plate was added with a blocking solution and sealed at room temperature for 1 hour. The blocking solution was discarded and the primary antibody was added and then the plate was incubated at room temperature for 1 hour. After incubation, the plate was washed with TBST 5 times in a microplate washer, then added with secondary antibody and incubated at room temperature for 1 hour. After incubation, the plate was washed with TBST 5 times in a microplate washer, and finally added with color developer for color development. The plate was read with Envision plate reader. The obtained data was converted into inhibition rate using the following calculation method: % Inhibition rate=100−100*(compound absorbance−positive control absorbance)/(negative control absorbance−positive control absorbance), and then the inhibition rate data was subjected to curve fitting using the “logarithmic (inhibitor) and reaction-variable slope (four parameters)” model in GraphPad Prism 5 software.
The inhibition rate of the compound was calculated as follows: […]
The compounds of the present invention were tested according to the above experimental method, and some results were shown in Table 3. The test results were classified by A, B, and C, wherein A represents IC50≤0.1 uM; B represents 0.1 uM<IC50≤1 uM; C represents IC50>1 uM

Row | IC50 [µM] | SMILES
1 | > 1 | COc1nccc2ccc(Nc3ccc([C@H](C)Nc4ncc(CCc5cc(C(N)=O)n[nH]5)cn4)cc3F)nc12 [PA245]
2 | > 1 | COCCNCc1cnc(NCc2ccc(Nc3ccc4ccnc(OC)c4n3)c(F)c2)nc1 [PA247]
3 | > 1 | COc1nccc2ccc(Nc3ccc(CNc4ncc(CNCc5cnn(C)c5)cn4)cc3F)nc12 [PA249]
4 | > 1 | O=C(Nc1ccc(NCC23CCC(Nc4ccc5ccnc(Cl)c5n4)(CC2)CC3)nc1)NC1COC1 [PA250]
5 | > 1 | COc1nccc2ccc(Nc3ccc(CNc4ncc(CC(=O)N5CC6(COC6)C5)cn4)cc3F)nc12 [PA251]
6 | > 1 | COc1nccc2ccc(Nc3ccc(CNc4ncc(CNCC5CCOCC5)cn4)cc3F)nc12 [PA252]
7 | > 1 | COc1nccn2cc(Nc3ccc(CNc4ncc(CC(=O)NC5COC5)cn4)cc3)nc12 [PA253]
8 | > 1 | COc1nccc2cnc(Nc3ccc(CNc4ncc(CC(=O)NC5COC5)cn4)cc3)nc12 [PA254]
9 | > 1 | Cn1ccc2ccc(Nc3ccc(CNc4ncc(CC(=O)NC5COC5)cn4)cc3)nc2c1=O [PA255]
10 | > 1 | COc1nccc2ccc(Nc3ccc([C@@H](CO)Nc4ncc(CC(=O)NC5COC5)cn4)cc3F)nc12 [PA256]
11 | ≤ 0.1 | C[C@H](Nc1ncc(C(NC2CS(=O)(=O)C2)C(=O)OC(C)(C)C)cn1)C12CCC(Nc3ccc4ccnc(Cl)c4n3)(CC1)CC2 (stereo partly drawn) [PA257]
12 | ≤ 0.1 | COc1nccc2ccc(Nc3ccc(CNc4ncc(CNCc5ccno5)cn4)cc3F)nc12 [PA258]
13 | ≤ 0.1 | COc1nccc2ccc(Nc3ccc(CNc4ncc(CN5CCS(=O)(=O)CC5)cn4)cc3F)nc12 [PA259]
14 | ≤ 0.1 | COc1nccc2ccc(Nc3ccc([C@H](C)Nc4ncc(CNCCS(C)(=O)=O)cn4)cc3F)nc12 [PA260]
15 | ≤ 0.1 | COc1nccc2ccc(Nc3ccc([C@H](C)Nc4ncc(CNC5CCS(=O)(=O)CC5)cn4)cc3F)nc12 [PA261]
16 | ≤ 0.1 | COc1nccc2ccc(Nc3ccc([C@H](C)Nc4ncc(C(C)C5CCS(=O)(=O)CC5)cn4)cc3F)nc12 (stereo partly drawn) [PA262]
17 | ≤ 0.1 | O=C(Cc1cnc(NCC23CCC(Nc4ccc5cccc(Cl)c5n4)(CC2)CC3)nc1)NC1COC1 [PA263]
18 | ≤ 0.1 | O=C(Cc1cnc(NC(CO)C23CCC(Nc4ccc5ccnc(Cl)c5n4)(CC2)CC3)nc1)NC1COC1 (stereo not drawn) [PA264]
19 | ≤ 0.1 | Cc1ccc2ccc(Nc3ccc([C@H](C)Nc4ncc(CN(CCO)C5CS(=O)(=O)C5)cn4)cc3F)nc2c1Cl [PA266]
20 | ≤ 0.1 | CCN(Cc1cnc(N[C@@H](C)c2ccc(Nc3ccc4ccc(C)c(Cl)c4n3)c(F)c2)nc1)C1CS(=O)(=O)C1 [PA267]
21 | ≤ 0.1 | Cc1ccc2ccc(Nc3ccc([C@H](C)Nc4ncc(CN(CC(=O)O)C5CS(=O)(=O)C5)cn4)cc3F)nc2c1Cl [PA268]
